Measured values taken from patent publication US11554133B2, “Bile acid synthesis promoter, composition for promoting bile acid synthesis and food composition for promoting bile acid synthesis” (KRACIE HOLDINGS, LTD., priority 2017, dated 2023).

Experiments:
Cyp8b1 of the liver = test: Liver Cyp8b1 mRNA expression by qPCR; type: in vivo; conditions: db/db mice, 0.2% arctigenin diet nine weeks, qPCR vs 18S rRNA, Student's t-test
Procedure: (§1) Using 5-week-old male db/db mice (BKS.Cg−+Leprdb/+Leprdb/Jcl, purchased from CLEA Japan, Inc.) that were leptin receptor-deficient model, the experiments were started after one-week preliminary rearing. The animals were reared under the environment of 23.0±5° C. of temperature, 50.0±10% of humidity and 12 hours of light-dark cycle. The animal experiments were approved by animal care and use committee of Keio University and carried out based on animal experiment rules of Keio University.
(§2) After preliminary rearing, mice were divided into two groups of (a) control group and (b) arctigenin administrated group (AG group) (each group n=8), and made AG group intake purified diet combined with arctigenin (>98.0%) 0.2% and purified diet (AIN-93G) for control group freely for nine weeks. After administration, 18-hour fasting was performed, and blood specimens were collected from abdominal vena cava under anesthesia, and the liver and the small intestine were sampled.
(§3) After having performed extraction of total RNA from the obtained organs and cDNA synthesis on each group, the expression level of Cyp8b1, SHP, FXR and FGF4R of the liver which are the liver cholesterol metabolism-related genes and small intestinal FGF15 and SHP were compared by qPCR. As control, 18S rRNA was used. […]

small intestinal FGF15 = test: Small intestinal FGF15 mRNA expression by qPCR; type: in vivo; conditions: db/db mice, 0.2% arctigenin diet nine weeks, qPCR vs 18S rRNA
Procedure: as §1, §2, §3

bile acid in feces = test: Measurement of the amount of bile acid in feces (UPLC-MS/MS) of db/db mice fed arctigenin diet; type: in vivo; conditions: 0.2% arctigenin in purified diet for nine weeks, pooled feces at end of administration
Procedure: as §1, §2
Feces were collected from the rearing cage of each group at the end of the administration period, and the amount of bile acid in feces was measured. 10 mg of dry powder of pooled feces was suspended in 0.2 mL of 90% ethanol and incubated at 65° C. for 1 hour, and the supernatant after centrifugation and the washing of the precipitates were collected together. […]

[1] = system: total cholesterol in the liver; test: Measurement of total cholesterol in liver of db/db mice fed arctigenin diet; type: in vivo; conditions: 0.2% arctigenin in purified diet for nine weeks, liver lipid extract
Procedure: Using 5-week-old male db/db mice (BKS.Cg−+Leprdb/+Leprdb/Jcl, purchased from CLEA Japan, Inc.) that were leptin receptor-deficient model, the experiments were started after one-week preliminary rearing. The animals were reared under the environment of 23.0±5° C. of temperature, 50.0±10% of humidity and 12 hours of light-dark cycle. The animal experiments were approved by animal care and use committee of Keio University and carried out based on animal experiment rules of Keio University. After preliminary rearing, mice were divided into two groups of (a) control group and (b) arctigenin administrated group (AG group) (each group n=8), and made AG group intake purified diet combined with arctigenin (>98.0%) 0.2% and purified diet (AIN-93G) for control group freely for nine weeks. After administration, 18-hour fasting was performed, and blood specimens were collected from abdominal vena cava under anesthesia, and the liver and the small intestine were sampled. Homogenate the liver obtained from each group and extracted total lipid using a lipid extraction kit (Lipid Extraction Kit (Chloroform-Free), Cell Biolabs, Inc.). A total cholesterol level was measured from lipid extract using cholesterol E-test Wako (Wako Pure Chemical Corporation). FIG. 2 is a graph showing the amount of total cholesterol in the liver (mg/dL) in control group and AG group. […]

FGF4R of the liver = test: Liver FGF4R mRNA expression by qPCR; type: in vivo; conditions: db/db mice, 0.2% arctigenin diet nine weeks, qPCR vs 18S rRNA, Student's t-test
Procedure: as §1, §2, §3

small intestinal SHP = test: Small intestinal SHP mRNA expression by qPCR; type: in vivo; conditions: db/db mice, 0.2% arctigenin diet nine weeks, qPCR vs 18S rRNA
Procedure: as §1, §2, §3

FXR of the liver = test: Liver FXR mRNA expression by qPCR; type: in vivo; conditions: db/db mice, 0.2% arctigenin diet nine weeks, qPCR vs 18S rRNA, Student's t-test
Procedure: as §1, §2, §3

SHP of the liver = test: Liver SHP mRNA expression by qPCR; type: in vivo; conditions: db/db mice, 0.2% arctigenin diet nine weeks, qPCR vs 18S rRNA, Student's t-test
Procedure: as §1, §2, §3

[2] = general statement, no test described; cited from earlier work

For `COc1cc(C[C@H]2C(=O)OC[C@@H]2Cc2ccc(OC)c(OC)c2)ccc1O` [arctigenin], the “relative mRNA expression level of Cyp8b1 of the liver in comparison with control group” value (Cyp8b1 of the liver) was “significantly high”, the “relative mRNA expression level of small intestinal FGF15 in comparison with control group” value (small intestinal FGF15) was “low” and the “amount of total bile acid in feces in comparison with control group” value (bile acid in feces) was “large amount”. For the same molecule, the “amount of total cholesterol in the liver versus control group” value [1] was “little amount”, the “relative mRNA expression level of FGF4R of the liver in comparison with control group” value (FGF4R of the liver) was “significantly low” and the “relative mRNA expression level of small intestinal SHP in comparison with control group” value (small intestinal SHP) was “low”. The “relative mRNA expression level of FXR of the liver in comparison with control group” value (FXR of the liver) was “significantly low”, the “relative mRNA expression level of SHP of the liver in comparison with control group” value (SHP of the liver) was “significantly low” and the solubility in water [2] was “water-insoluble”.
